Legend:
Test in all cases: radiometric filter-binding kinase assay
[1] = test system: AKT2 (human), P31751 [S474D]
AURKB (human) = AURKB (human) (UniProt Q96GD4)
CAMKK2 (human) = CAMKK2 (human) (UniProt Q96RR4)
CHEK1 (human) = CHEK1 (human) (UniProt O14757)
CHEK2 (human) = CHEK2 (human) (UniProt O96017)
EPHB4 (human) = EPHB4 (human) (UniProt P54760)
GCK (human) = GCK (human) (UniProt Q12851)
IGF1R (human) = IGF1R (human) (UniProt P08069)
IKBKB (human) = IKBKB (human) (UniProt O14920)
MAP2K1 (human) = MAP2K1 (human) (UniProt Q02750)
MAP2K1 (human), sequence (Q02750 whole entry, looked up): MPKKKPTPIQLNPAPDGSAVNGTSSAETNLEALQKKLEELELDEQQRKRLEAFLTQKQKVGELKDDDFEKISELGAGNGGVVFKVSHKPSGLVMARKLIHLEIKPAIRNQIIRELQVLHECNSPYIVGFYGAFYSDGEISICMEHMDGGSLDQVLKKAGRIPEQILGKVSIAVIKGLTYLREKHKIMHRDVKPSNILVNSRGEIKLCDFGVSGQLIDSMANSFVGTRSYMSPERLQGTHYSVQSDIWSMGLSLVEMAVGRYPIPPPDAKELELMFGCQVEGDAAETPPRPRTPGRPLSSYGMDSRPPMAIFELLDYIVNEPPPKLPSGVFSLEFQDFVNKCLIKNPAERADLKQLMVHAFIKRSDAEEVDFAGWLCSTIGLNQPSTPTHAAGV

MAP3K1 (human) = MAP3K1 (human) (UniProt Q13233)
MAP3K5 (human) = MAP3K5 (human) (UniProt Q99683)
MAPK1 (human) = MAPK1 (human) (UniProt P28482)
MAPK10 (human) = MAPK10 (human) (UniProt P53779)
MAPK10 (human), sequence (P53779 whole entry, looked up): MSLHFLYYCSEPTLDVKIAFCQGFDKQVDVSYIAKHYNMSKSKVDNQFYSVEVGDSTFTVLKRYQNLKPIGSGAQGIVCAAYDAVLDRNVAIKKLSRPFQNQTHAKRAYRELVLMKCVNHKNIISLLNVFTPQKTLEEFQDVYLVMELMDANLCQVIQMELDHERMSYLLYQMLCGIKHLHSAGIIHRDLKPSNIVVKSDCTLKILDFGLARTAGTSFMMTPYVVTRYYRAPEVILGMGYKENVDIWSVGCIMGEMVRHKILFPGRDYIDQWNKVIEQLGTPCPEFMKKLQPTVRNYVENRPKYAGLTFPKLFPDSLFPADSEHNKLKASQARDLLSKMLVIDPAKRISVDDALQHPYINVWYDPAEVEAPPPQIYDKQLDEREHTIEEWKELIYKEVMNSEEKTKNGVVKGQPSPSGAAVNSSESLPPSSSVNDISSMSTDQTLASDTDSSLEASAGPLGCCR

MAPK15 (human) = MAPK15 (human) (UniProt Q8TD08)
MAPK15 (human), sequence (Q8TD08 whole entry, looked up): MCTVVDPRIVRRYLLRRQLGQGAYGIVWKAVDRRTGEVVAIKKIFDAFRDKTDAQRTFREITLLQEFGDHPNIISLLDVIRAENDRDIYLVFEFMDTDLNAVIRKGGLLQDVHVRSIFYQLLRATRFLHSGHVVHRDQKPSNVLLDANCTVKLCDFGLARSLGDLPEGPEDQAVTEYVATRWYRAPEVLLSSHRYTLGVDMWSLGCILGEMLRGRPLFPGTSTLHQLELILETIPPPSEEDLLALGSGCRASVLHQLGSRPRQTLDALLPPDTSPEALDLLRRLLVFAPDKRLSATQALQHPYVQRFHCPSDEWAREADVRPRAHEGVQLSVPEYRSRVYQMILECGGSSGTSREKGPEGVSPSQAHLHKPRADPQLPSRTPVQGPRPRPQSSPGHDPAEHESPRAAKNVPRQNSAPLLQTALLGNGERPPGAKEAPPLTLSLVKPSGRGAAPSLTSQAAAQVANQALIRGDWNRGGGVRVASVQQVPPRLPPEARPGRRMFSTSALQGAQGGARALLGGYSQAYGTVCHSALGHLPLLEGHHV

MAPK3 (human) = MAPK3 (human) (UniProt P27361)
MAPK3 (human), sequence (P27361 whole entry, looked up): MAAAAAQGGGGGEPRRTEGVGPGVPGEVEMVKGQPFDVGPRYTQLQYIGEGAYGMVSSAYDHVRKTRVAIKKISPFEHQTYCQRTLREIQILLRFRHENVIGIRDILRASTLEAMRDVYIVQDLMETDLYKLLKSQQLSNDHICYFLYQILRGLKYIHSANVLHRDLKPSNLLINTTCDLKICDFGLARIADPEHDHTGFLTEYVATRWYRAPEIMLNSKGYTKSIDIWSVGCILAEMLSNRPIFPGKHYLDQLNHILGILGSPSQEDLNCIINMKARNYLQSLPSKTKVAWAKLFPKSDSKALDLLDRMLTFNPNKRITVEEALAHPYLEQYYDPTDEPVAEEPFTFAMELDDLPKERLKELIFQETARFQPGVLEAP

MAPK9 (human) = MAPK9 (human) (UniProt P45984)
MAPK9 (human), sequence (P45984 whole entry, looked up): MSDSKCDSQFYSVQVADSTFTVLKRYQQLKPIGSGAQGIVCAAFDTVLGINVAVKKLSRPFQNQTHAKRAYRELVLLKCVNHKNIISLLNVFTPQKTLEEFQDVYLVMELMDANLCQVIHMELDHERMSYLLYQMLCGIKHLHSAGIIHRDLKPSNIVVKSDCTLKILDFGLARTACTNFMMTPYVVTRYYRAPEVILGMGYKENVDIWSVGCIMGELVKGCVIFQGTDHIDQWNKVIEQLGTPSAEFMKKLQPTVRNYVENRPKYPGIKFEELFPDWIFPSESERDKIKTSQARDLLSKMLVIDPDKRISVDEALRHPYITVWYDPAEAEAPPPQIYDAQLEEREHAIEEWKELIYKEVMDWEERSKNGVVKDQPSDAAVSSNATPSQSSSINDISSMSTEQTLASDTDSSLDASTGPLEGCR

MAPKAPK2 (human) = MAPKAPK2 (human) (UniProt P49137)

CAMKK2 (human), sequence (Q96RR4 whole entry, looked up): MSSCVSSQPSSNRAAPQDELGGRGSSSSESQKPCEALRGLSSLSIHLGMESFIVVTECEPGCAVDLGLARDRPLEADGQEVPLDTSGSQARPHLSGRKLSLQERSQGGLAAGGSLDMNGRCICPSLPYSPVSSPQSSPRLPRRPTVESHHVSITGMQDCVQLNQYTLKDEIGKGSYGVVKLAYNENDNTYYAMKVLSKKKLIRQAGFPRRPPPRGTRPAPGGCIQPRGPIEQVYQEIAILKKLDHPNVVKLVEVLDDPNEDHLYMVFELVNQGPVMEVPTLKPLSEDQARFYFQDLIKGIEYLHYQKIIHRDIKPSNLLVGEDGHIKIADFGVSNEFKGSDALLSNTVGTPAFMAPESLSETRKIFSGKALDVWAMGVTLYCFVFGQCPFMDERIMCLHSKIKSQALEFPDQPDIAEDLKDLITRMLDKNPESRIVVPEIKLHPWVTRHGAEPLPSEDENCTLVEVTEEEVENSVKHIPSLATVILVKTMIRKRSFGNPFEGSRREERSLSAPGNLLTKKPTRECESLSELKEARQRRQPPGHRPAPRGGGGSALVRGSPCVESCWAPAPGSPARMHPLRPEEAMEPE
AKT2 (human), P31751 [S474D], sequence (P31751 whole entry S474D, looked up): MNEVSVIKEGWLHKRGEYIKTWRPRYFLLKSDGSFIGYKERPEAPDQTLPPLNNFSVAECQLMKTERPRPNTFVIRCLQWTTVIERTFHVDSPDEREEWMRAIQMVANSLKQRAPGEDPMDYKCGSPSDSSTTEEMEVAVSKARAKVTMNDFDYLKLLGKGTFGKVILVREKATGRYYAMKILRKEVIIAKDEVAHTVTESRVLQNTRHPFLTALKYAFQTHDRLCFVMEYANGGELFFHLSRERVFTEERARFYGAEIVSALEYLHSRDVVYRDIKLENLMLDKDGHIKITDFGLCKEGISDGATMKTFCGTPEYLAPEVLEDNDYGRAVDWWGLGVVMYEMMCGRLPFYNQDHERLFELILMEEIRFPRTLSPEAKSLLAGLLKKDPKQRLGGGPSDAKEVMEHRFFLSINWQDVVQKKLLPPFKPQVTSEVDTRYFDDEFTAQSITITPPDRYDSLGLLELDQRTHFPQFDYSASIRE
AURKB (human), sequence (Q96GD4 whole entry, looked up): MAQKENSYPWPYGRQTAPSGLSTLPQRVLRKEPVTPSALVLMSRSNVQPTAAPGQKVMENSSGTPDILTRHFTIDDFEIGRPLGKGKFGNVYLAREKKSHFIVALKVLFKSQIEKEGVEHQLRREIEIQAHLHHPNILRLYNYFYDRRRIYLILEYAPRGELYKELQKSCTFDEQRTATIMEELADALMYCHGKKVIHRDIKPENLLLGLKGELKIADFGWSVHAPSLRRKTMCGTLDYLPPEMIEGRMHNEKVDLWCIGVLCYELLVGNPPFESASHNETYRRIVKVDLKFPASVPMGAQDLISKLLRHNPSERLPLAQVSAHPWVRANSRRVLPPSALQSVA
CHEK1 (human), sequence (O14757 whole entry, looked up): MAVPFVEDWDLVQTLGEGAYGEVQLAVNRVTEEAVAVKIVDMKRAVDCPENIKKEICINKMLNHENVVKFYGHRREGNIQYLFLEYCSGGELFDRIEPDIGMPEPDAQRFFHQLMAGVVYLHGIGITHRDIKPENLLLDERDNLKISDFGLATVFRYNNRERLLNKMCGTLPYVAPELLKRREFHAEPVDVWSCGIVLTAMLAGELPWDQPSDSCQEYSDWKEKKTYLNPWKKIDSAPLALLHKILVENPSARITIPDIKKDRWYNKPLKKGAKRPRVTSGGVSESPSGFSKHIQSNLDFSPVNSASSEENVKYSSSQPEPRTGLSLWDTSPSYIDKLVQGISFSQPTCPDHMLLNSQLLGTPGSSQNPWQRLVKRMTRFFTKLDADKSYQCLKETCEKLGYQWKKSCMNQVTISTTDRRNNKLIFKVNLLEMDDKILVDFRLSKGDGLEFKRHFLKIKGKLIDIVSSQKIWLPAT
CHEK2 (human), sequence (O96017 whole entry, looked up): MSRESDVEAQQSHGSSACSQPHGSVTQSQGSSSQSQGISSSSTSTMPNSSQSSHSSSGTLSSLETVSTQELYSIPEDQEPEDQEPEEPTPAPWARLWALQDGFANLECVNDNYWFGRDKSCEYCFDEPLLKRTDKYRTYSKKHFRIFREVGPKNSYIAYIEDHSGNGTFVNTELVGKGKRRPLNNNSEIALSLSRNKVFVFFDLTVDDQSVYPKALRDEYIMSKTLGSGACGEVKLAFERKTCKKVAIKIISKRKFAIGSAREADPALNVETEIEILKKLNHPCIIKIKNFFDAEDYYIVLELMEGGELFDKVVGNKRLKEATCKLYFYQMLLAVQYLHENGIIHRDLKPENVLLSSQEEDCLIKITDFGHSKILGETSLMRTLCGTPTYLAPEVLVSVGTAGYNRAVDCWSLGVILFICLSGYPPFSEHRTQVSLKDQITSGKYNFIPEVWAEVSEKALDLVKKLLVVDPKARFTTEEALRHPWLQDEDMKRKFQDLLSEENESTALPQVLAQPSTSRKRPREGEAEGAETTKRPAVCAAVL

## CNc1nc(-c2ccc3c(N)n[nH]c3c2)cc(N2C[C@@H](C(=O)NC3CCCCC3)CC[C@H]2C)n1
[1]; compound 0.01 µM
  residual activity: 125%
[1]; compound 0.1 µM
  residual activity: 118%
[1]; compound 1.0 µM
  residual activity: 107%
[1]; compound 10.0 µM
  residual activity: 56%
AURKB (human); compound 0.01 µM
  residual activity: 105%
AURKB (human); compound 0.1 µM
  residual activity: 106%
AURKB (human); compound 1.0 µM
  residual activity: 72%
AURKB (human); compound 10.0 µM
  residual activity: 29%
CAMKK2 (human); compound 0.01 µM
  residual activity: 112%
CAMKK2 (human); compound 0.1 µM
  residual activity: 123%
CAMKK2 (human); compound 1.0 µM
  residual activity: 99%
CAMKK2 (human); compound 10.0 µM
  residual activity: 91%
CHEK1 (human); compound 0.01 µM
  residual activity: 111%
CHEK1 (human); compound 0.1 µM
  residual activity: 106%
CHEK1 (human); compound 1.0 µM
  residual activity: 96%
CHEK1 (human); compound 10.0 µM
  residual activity: 103%
CHEK2 (human); compound 0.1 µM
  residual activity: 121%
CHEK2 (human); compound 1.0 µM
  residual activity: 96%
CHEK2 (human); compound 10.0 µM
  residual activity: 51%
EPHB4 (human); compound 1.0 µM
  residual activity: 119%
EPHB4 (human); compound 10.0 µM
  residual activity: 117%
GCK (human); compound 0.01 µM
  residual activity: 109%
GCK (human); compound 0.1 µM
  residual activity: 116%
GCK (human); compound 1.0 µM
  residual activity: 97%
GCK (human); compound 10.0 µM
  residual activity: 86%
IGF1R (human); compound 0.1 µM
  residual activity: 115%
IGF1R (human); compound 1.0 µM
  residual activity: 98%
IGF1R (human); compound 10.0 µM
  residual activity: 100%
IKBKB (human); compound 0.01 µM
  residual activity: 105%
IKBKB (human); compound 0.1 µM
  residual activity: 112%
IKBKB (human); compound 1.0 µM
  residual activity: 118%
IKBKB (human); compound 10.0 µM
  residual activity: 103%
MAP2K1 (human); compound 0.01 µM
  residual activity: 86%
MAP2K1 (human); compound 0.1 µM
  residual activity: 101%
MAP2K1 (human); compound 1.0 µM
  residual activity: 85%
MAP2K1 (human); compound 10.0 µM
  residual activity: 74%
MAP3K1 (human); compound 1.0 µM
  residual activity: 87%
MAP3K1 (human); compound 10.0 µM
  residual activity: 104%
MAP3K5 (human); compound 1.0 µM
  residual activity: 106%
MAP3K5 (human); compound 10.0 µM
  residual activity: 99%
MAPK1 (human); compound 0.01 µM
  residual activity: 117%
MAPK1 (human); compound 0.1 µM
  residual activity: 111%
MAPK1 (human); compound 1.0 µM
  residual activity: 107%
MAPK1 (human); compound 10.0 µM
  residual activity: 109%
MAPK10 (human); compound 0.01 µM
  residual activity: 106%
MAPK10 (human); compound 0.1 µM
  residual activity: 106%
MAPK10 (human); compound 10.0 µM
  residual activity: 97%
MAPK15 (human); compound 0.01 µM
  residual activity: 106%
MAPK15 (human); compound 0.1 µM
  residual activity: 117%
MAPK15 (human); compound 1.0 µM
  residual activity: 99%
MAPK15 (human); compound 10.0 µM
  residual activity: 83%
MAPK3 (human); compound 0.01 µM
  residual activity: 93%
MAPK3 (human); compound 0.1 µM
  residual activity: 106%
MAPK3 (human); compound 1.0 µM
  residual activity: 103%
MAPK3 (human); compound 10.0 µM
  residual activity: 108%
MAPK9 (human); compound 0.01 µM
  residual activity: 117%
MAPK9 (human); compound 0.1 µM
  residual activity: 126%
MAPK9 (human); compound 1.0 µM
  residual activity: 104%
MAPK9 (human); compound 10.0 µM
  residual activity: 114%
MAPKAPK2 (human); compound 0.01 µM
  residual activity: 104%
MAPKAPK2 (human); compound 0.1 µM
  residual activity: 111%
MAPKAPK2 (human); compound 1.0 µM
  residual activity: 86%
MAPKAPK2 (human); compound 10.0 µM
  residual activity: 84%

Reference: the kinase profiling compilation of Christmann-Franck et al. (2016)
